The values that follow come from patent US20110217293A1, “Uses of morelloflavone” (priority 2008, published 2011).

Data set [1] in a line: Body weight in carotid artery injury study. It is filed as in vivo, mouse. Conditions: apoE−/− mice. The protocol:
The carotid artery injury assay was performed as described by Kuhel (16). Male apoE−/− mice were obtained from Jackson Laboratory (Bar Harbor, Me.) and maintained on a 12 hour light/dark cycle. All animal experimentation protocols were performed under institutional guidelines of animal welfare, in accordance with NIH guidelines. Mice were fed either normal rodent chow diet (5001, LabDiet) (n=10) or normal chow diet containing 0.15% morelloflavone (w/w) (n=9). This diet corresponded to 200 mg/kg morelloflavone if a 30 gm mouse consumes 4 grams of chow. Mice were placed on these diets for 7 days before they underwent carotid artery denudation by the insertion of an epoxy resin (Epon) probe as described (16).

The subject of data set [2] is RhoA. Put plainly: GTPase activation assay, RhoA. The format is cell-based, mouse. Conditions: 0.1 mM; low concentrations 0.1 & 1 mM. As for the experimental part: To assess the phosphorlyation status of ERK, […] of whole cell lysates was loaded onto SDS-PAGE, and Western blot analysis was done using anti-p-ERK (Santa Cruz; E-4; sc-7383) and anti-ERK (Santa Cruz; K-23; sc-94) antibodies. To detect active RhoA, Rac1 and Cdc42, generated GST-tagged RhoA binding domain of Rhotekin protein (GST-Rhotekin-RBD) and GST-tagged p21-binding domain of p21-activated kinase 1 (PAK1)(GST-PAK1-PBD) were first generated. Briefly, E. coli BL21 cells transformed with pGEX4T-PAK1-PBD or pGEX4T-Rh,otekin-RBD were grown at 37° C. and expression of recombinant protein was induced by addition of 0.1 mM IPTG for 3 hours. Cells were resuspended in lysis buffer (50 mM Tris-HCl, pH 8.0, 10% glycerol, 20% sucrose, 2 mM DTT, 1 mg/ml leupeptin, 1 mg/ml pepstatin, and 1 mg/ml aprotinin), sonicated, and centrifuged at 4° C. for 30 min at 45,000 g. The supernatant was incubated with glutathione sepharose 4B beads (GE-Amersham, Piscataway, N.J.) for 1 hour at 4° C., and then washed 3 times in lysis buffer. Using these GST-proteins, GTPase activation assays were performed as described. […]

In data set [3] the test system is vascular smooth muscle cells. Nature of the data set: Invasion assay (modified Boyden chamber). It is filed as cell-based, mouse. Conditions: 1 mM morelloflavone, 8-hour incubation. The protocol:
(§1) Mouse vascular smooth muscle cells, isolated as described (13), were maintained in 231 media (Cascade Biologics, Portland, Oreg.) supplemented with SMGS (Cascade Biologics) in a humidified incubator at 37° C. with 5% CO2. Cells from passages 4-9 were used in all experiments. All experiments were performed in subconfluent, unsynchronized cells growing in SMGS except for the lamellipodium formation assay.
The lower chambers of the ChemoTx® Disposable Chemotaxis System (NeuroProbe, Gaithersburg, Md.) were filled with […] of SMGS diluted in 231 medium at the appropriate concentrations (0-10%). A filter membrane ([…] pore size) was positioned over the lower wells, and 1×10^4 vascular smooth muscle cells suspended in […] 231 medium (without morelloflavone) were placed on the test sites within circular hydrophobic masks on the upper side of the filter plate (n=5 each). […] After additional 8-hour incubation, cells on the upper surface of the membrane, i.e., cells that had not migrated, were scraped off by Q-tips, and cells that had migrated to the lower surface were fixed and stained by hematoxylin solution and counted. Migrated cell 6 numbers were calculated as the number of cells migrated per 8.0 mm^2 test site surface area.

Data set [4] has as its system c-Src. Nature of the data set: Western blot, phosphorylation of c-Src. It is filed as cell-based, mouse. Conditions: low concentrations (0.1 & 1 mM), 5 min. The protocol:
For the evaluation of phosphorylated FAK and c-Src, Western blot analyses were performed as described (15). Briefly, vascular smooth muscle cells were seeded on 10-cm dishes, treated with various concentrations of morelloflavone for 5 min, and harvested into RIPA buffer with protease inhibitor cocktails. Cleared cell lysates ([…] of protein) were incubated with anti-FAK or anti-c-Src antibodies at 4° C. for 1 hr in a final volume of 1 mL RIPA buffer, and incubated for another 1 hr with protein A/G agarose beads (Santa Cruz; SCBT sc-2003). Immunoprecipitated proteins were eluted into SDS-loading 7 buffer and subjected to 12% SDS-PAGE and immunoblotting using anti-FAK (Santa Cruz; A-17; sc-557) and anti-c-Src (Santa Cruz; SRC-2; sc-18) antibodies for total FAK and c-Src, respectively, and anti-phosphotyrosine antibody (Santa Cruz; PY-20; sc-508) for phosphorylated FAK and c-Src. Densitometric analyses were performed using Adobe Photoshop (Adobe Systems Incorporated, San Jose, Calif.).
Background: Immunoblotting shows a protein as a band on a membrane.

Data set [5] has as its system vascular smooth muscle cells. Nature of the data set: Cell cycle analysis by flow cytometry. It is filed as cell-based, mouse. Conditions: concentrations up to 10 mM (10 μM), 24 hr. As for the experimental part: as §1
Vascular smooth muscle cells (1×106) were seeded onto 10-cm dishes and treated with various concentrations of morelloflavone. After 24 hr incubation, the cells were fixed with 70% ethanol at 4° C. overnight, treated with RNAse in PBS, stained with propidium iodide (Sigma, St. Louis, Mo.), and subjected to flow cytometric DNA content analysis using Epics XL (Beckman-Coulter, Miami, Fla.). The percentages of cells in G1, S, and G2/M phases were determined using Multi-cycle system software (Phoenix Flow System, San Diego, Calif.).
In general terms: In flow cytometry, cells or beads pass a laser one at a time.

SMILES strings stand for the structures. “Also recorded” adds a separate entry of the source.

For the molecule `O=C1c2c(O)cc(O)cc2O[C@H](c2ccc(O)cc2)[C@H]1c1c(O)cc(O)c2c(=O)cc(-c3ccc(O)c(O)c3)oc12` [morelloflavone, 5,7, 4′, 5″, 7″, 3″, 4″-heptahydroxy-[3,8″]-flavonylflavanone], the Body weight in data set [1] (at the time of sacrifice) was determined as 23.3 ± 1.5 g; in data set [1] (before injury) it was 24.0 ± 2.0 g. For the same molecule, the “activation of RhoA” value in data set [2] is “inhibited; also recorded: blocks the activation”. In data set [3], the “effect on vascular smooth muscle cell migration/invasion towards SMGS” value is “significantly blocked; also recorded: blocks”. For the same molecule, in data set [4], the “phosphorylation of c-Src” value is recorded as “inhibited; also recorded: robustly decreased phosphorylation; also recorded: blocks”. For the same molecule, the “effect on cell cycle progression” value in data set [5] was “did not significantly affect; also recorded: does not affect cell cycle progression”.
